Experimental data published in PubChem BioAssay AID504539 (Broad Institute, 2011).

Each compound was assayed on Cell-based prion protein 5' UTR reporter, plate reader (assay: prion protein 5' UTR mRNA inhibitors – cell-based, plate reader, cherry-picked samples, dose response (AID 504539)).

Compound | AC50
CC(C)(C)c1ccc(/C=N/Nc2cccc(C(=O)O)c2)cc1 | 2110 nM
Cc1ccc2nc(-c3ccc4c(c3)OCCO4)cn2c1 | 110 nM
O=C(O)c1ccc(N/N=C/c2ccc3nccnc3c2)cc1 | 560 nM
O=c1c2ccccc2sc2ccc(C#CC3(O)CCCCC3)cc12 | < 38 nM
COc1cc(C2c3cc4c(cc3OC(NNC(N)=O)C2C)OCO4)cc(OC)c1OC (configuration not stated) | 822 nM
O=c1oc2ccccc2cc1-c1cn(-c2ccccc2)c(=S)[nH]1 | 776 nM
CCOc1ccc(S(=O)(=O)Nc2cc(OC)ccc2OC)cc1 | 873 nM
CCCCCCN1C=CC(=C2C(=O)c3ccccc3C2=O)C=C1 | 369 nM
CCn1c(C)nc2cc(-c3nc4n(n3)Cc3ccccc3-4)ccc21 | 44 nM
O=C(Nc1nc2cc3c(cc2s1)OCCO3)c1ccco1 | 234 nM
Cc1ccc(C(=O)Nc2cc3ccccc3oc2=O)cc1 | 143 nM
Clc1ccc(-n2ncc3c(N4CCCCCC4)ncnc32)cc1 | 795 nM
CC(=O)c1ccc(Oc2cc(C)nc(-n3nc(C)cc3C)n2)cc1 | 1250 nM
Cc1ccc2nc3sc(C(=O)N4CCOCC4)c(N)c3cc2c1 | 275 nM
Cc1cccc(/C=N/Nc2ccc3ccccc3n2)c1 | 456 nM
CC1=CC(C)CC(C)OC(=O)CC(c2ccc(O)cc2)NC(=O)C(Cc2c(Br)[nH]c3ccccc23)N(C)C(=O)C(C)NC(=O)C(C)C1 (configuration not stated) | 146 nM
COC(=O)c1c(NC(=O)c2ccc([N+](=O)[O-])o2)sc2c1CCN(C(C)C)C2 | 2860 nM
COc1cccc2c1C(=O)c1c(O)c3c(c(O)c1C2=O)CC(O)(C(C)=NNC(=O)c1ccc(Cl)c(Cl)c1)CC3OC1CC(N)C(O)C(C)O1 (configuration not stated) | 1270 nM
O=C(Nc1ccc(-c2nc3cccnc3s2)cc1)C1CCCO1 (configuration not stated) | 630 nM
CC1=CC2OC3CC4OC(=O)C=CC=CC(C(C)O)OCC(O)C5(C)OC5C(=O)OCC2(CC1O)C4(C)C31CO1 (configuration not stated) | 95 nM
NC(=S)c1cn(C2OC(CO)C(O)C2O)c2ncnc(N)c12 (configuration not stated) | 1810 nM
Cc1nc(SCC(=O)Nc2nc3ccccc3s2)c(C#N)c(C)c1C | < 38 nM
COc1cc(-c2noc(C)c2/C=C/c2ccc(OC(C)=O)cc2)cc(OC)c1OC | 555 nM
Cc1c(C(=O)OCc2ccccc2)[nH]c2c1C(=O)CC(c1ccco1)C2 (configuration not stated) | 388 nM

Compound | AC50
Cc1nn(-c2ccccc2)c(C)c1/C=N/NC(=O)c1cc(-c2ccccc2)n[nH]1 | 783 nM
Cc1c(/C=N\NC(=O)C2COc3ccccc3O2)c2ccccc2n1C (configuration not stated) | 3040 nM
CN1CCc2c(sc(NC(=O)c3ccc([N+](=O)[O-])o3)c2C(N)=O)C1 | 972 nM
CC1=C(N2CC2)C(=O)C(CO)=C(N2CC2)C1=O | 154 nM
COc1ccc(-n2ncc3c(N4CCCCC4)ncnc32)cc1 | 661 nM
COc1cccc2c1C(=O)c1c(O)c3c(c(O)c1C2=O)C[C@@](O)(C(=O)CO)C[C@@H]3O[C@H]1C[C@H](N)[C@H](O)[C@H](C)O1 | 650 nM
Cc1ccc(-c2cc3c(nn2)-c2ccccc2C3=O)cc1 | 575 nM
Cc1c(C)c2ccc(OCC(=O)Nc3ccccn3)c(C)c2oc1=O | 64 nM
COc1cccc(N2CCN(C(=O)c3ccc(CS(=O)c4ccccc4C)o3)CC2)c1 (configuration not stated) | 1380 nM
CCOCCOC(=O)c1[nH]c2c(c1C)C(=O)CC(c1cccs1)C2 (configuration not stated) | 1700 nM
CCn1c(C)cc(C(=O)CN2C(=O)c3ccccc3S2(=O)=O)c1C | 1260 nM
Cc1cc(C)c2c(N)c(C(=O)Nc3ncc(C)s3)sc2n1 | 388 nM
Cc1ccc(C(=O)O/N=C(\N)c2ccccn2)cc1 | 213 nM
Cc1cc(C2=NNC(=NC3CC3)SC2)c(C)n1-c1ccccc1F | < 38 nM
Cc1cnc(NC(=O)c2ccc3c(c2)OCCO3)s1 | 159 nM
Cc1ccc(Nc2nc(-c3c(C)nc4ncccn34)cs2)cc1 | 168 nM
Cc1ccc(NC(=O)c2cc3ccccc3oc2=O)cc1S(=O)(=O)N(C)C | < 38 nM
Cc1cc(C2=NNC(=NC3CC3)SC2)c(C)n1-c1ccccc1 | < 38 nM
Cc1ccc(-c2cn3nc(C)c(C)nc3n2)cc1 | 485 nM
COc1ccc(C(=O)Nc2ccccc2C(=O)N/N=C/c2ccc(O)c(OC)c2)cc1 | 1400 nM
CC(=O)OCC12CC(OC(=O)CC(C)C)C(C)=CC1OC1C(O)C(OC(C)=O)C2(C)C12CO2 (configuration not stated) | < 38 nM
CCCSc1ccc2nc(-c3ccccc3)cn2c1 | 487 nM
COc1cc(C(=O)N2CCN(c3cccc(C)c3C)CC2)cc(OC)c1OC | 1410 nM
